{
  "source": "paper PMC2762193",
  "about": "(Journal of the American Chemical Society, 2009)",
  "biological_target": "wtTaq polymerase (Thermus aquaticus, UniProt P19821)",
  "sequence (P19821 whole entry)": "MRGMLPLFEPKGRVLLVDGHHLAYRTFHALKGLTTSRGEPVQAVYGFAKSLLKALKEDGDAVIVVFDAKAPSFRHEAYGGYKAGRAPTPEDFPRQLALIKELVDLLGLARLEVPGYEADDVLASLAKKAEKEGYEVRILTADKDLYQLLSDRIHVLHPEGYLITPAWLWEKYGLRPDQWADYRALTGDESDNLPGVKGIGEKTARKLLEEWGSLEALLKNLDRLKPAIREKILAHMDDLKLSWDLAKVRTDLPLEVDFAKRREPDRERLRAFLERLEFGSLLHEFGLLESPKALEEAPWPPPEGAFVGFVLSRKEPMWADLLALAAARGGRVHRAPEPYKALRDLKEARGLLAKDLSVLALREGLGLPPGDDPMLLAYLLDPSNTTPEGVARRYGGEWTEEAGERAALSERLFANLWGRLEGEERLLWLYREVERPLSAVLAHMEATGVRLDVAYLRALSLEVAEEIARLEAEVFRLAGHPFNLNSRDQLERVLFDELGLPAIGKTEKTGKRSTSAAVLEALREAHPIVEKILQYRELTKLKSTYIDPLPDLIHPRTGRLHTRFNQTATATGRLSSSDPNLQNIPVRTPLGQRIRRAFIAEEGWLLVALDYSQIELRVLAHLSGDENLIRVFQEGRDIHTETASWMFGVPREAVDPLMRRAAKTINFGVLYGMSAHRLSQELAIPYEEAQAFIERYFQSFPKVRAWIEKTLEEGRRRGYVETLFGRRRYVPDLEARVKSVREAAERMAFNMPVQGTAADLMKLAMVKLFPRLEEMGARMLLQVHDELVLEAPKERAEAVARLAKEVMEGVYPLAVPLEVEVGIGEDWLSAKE",
  "test": "gel-based steady-state single nucleotide incorporation, […]-labelled primer",
  "assay_type": "biochemical",
  "settings": "1 x Taq buffer, 60 °C",
  "data": [
    {"compound": "Nc1ncnc2c1ncn2[C@H]1C[C@H](O)[C@@H](COP(=O)(O)OP(=O)(O)OP(=O)(O)O)O1", "note": "[dATP]", "values": [
      {"measurement": "Km", "setting": "opposite template d5NI or d5NIC", "value": "incorporation of dNTPs opposite template d5NIC"}
    ]},
    {"compound": "Nc1nc2c(ncn2[C@H]2C[C@H](O)[C@@H](COP(=O)(O)OP(=O)(O)OP(=O)(O)O)O2)c(=O)[nH]1", "note": "[dGTP]", "values": [
      {"measurement": "Km", "setting": "opposite template dC", "value": "incorporation of dTTP opposite dA or dGTP opposite dC"}
    ]},
    {"compound": "Cc1cn([C@H]2C[C@H](O)[C@@H](COP(=O)(O)OP(=O)(O)OP(=O)(O)O)O2)c(=O)[nH]c1=O", "note": "[dTTP]", "values": [
      {"measurement": "Km", "setting": "opposite template dA", "value": "incorporation of dTTP opposite dA or dGTP opposite dC"}
    ]}
  ]
}
